Experimental findings from patent US6960574B2, “Antagonists of RF-amide neuropeptides” (University of Florida, priority 2002, dated 2005) are described below.

Square brackets hold non-standard residues; d marks the D form. Peptide text beside a SMILES is read from it. * marks the point of attachment. ξ: configuration not given here. Dansyl = CN(C)c1cccc2c(S(=O)(=O)*)cccc12; ξL = CC(C)CC(N)C(=O)O

For the test, the system named is receptor labeled by the radioiodinated analogue of 1 (4, [125I]-YLFQPQRF-NH2); neuropeptide FF receptor. Briefly: Competitive radioligand binding against 4 ([125I]Y8F-amide). The note with it: mixture-based positional scanning; difference from averaged radioligand displacement of whole library (0); about 80 a.u. = 10-fold change in Ki. The source says: Additionally, three-dimensional (3-D) molecular models of the known smaller-size neuropeptide FF antagonists 3 and 3a were constructed and their low-energy conformations were obtained in the AMBER force-field [Weiner, et al., J. Comput. Chem. 1986, 7, […].] by molecular dynamics calculations involving simulated annealing. A semi-empirical quantum chemical method with the PM3 parameterization [Stewart, J. Comput. Chem. 1989, 10, 209-220.] was used for the final geometry optimization. […] At least one of the rings in domain B is aromatic. No similarity between 3 and 3a outside these domains were apparent; therefore, the simultaneous presence of A and B domains in the structure of neuropeptide FF (1) antagonists is critical to the invention. Apparently, structural subunits (domain C) outside domains A and B should function in a cooperative manner in directing the pharmacophores into proper geometric positions when improved binding to the cognate receptor is to be obtained, which is associated with the improvement of the desired pharmacological effect. An approach involving mixture-based synthetic combinatorial libraries and positional scanning [(a) Houghten, et al., J. Med Chem. 1999, 42, 3743-3778.] was adopted in the search for preferred structural motifs in domain C that assist in achieving this objective in this invention. To allow for the use of 3 as a reference in this process, the guadinino group (A) was incorporated as part of an L-2-amino-5-{[amino(imino)methyl]amino}pentanoyl (arginyl, R, Arg) residue and 5-dimethylamino-1-naphthalenesulphonyl (dansyl) was chosen to form B (However, it must be emphasized that both R and dansyl are replaceable with moieties that bestow A and B domain attributes described in the invention).
Upon screening for residues to replace the glutamine of 3, serine (S) was the only building block in this position that increased the displacement of 4 in the radioligand-binding assay. Therefore, motifs present in dansyl-Gly-Ser-Arg-NH2, dansyl-Gly-Gln-Arg-NH2, dansyl-Gln-Ser-Arg-NH2, and dansyl-Gln-Gln-Arg-NH2 were chosen based on their affinity to the cognate receptor for further consideration as primary templates when designing the domain C of the compounds described in the invention herein. […]

`C[C@H](NC(=O)[C@H](C)NS(=O)(=O)c1cccc2c(N(C)C)cccc12)C(=O)N[C@@H](CCCNC(=N)N)C(N)=O` [Dansyl-AAR-amide] (Dansyl-Ala-Ala-Arg-NH2): the “Relative Binding Index (RBI)” value was −37 a.u.

Take `C[C@H](NS(=O)(=O)c1cccc2c(N(C)C)cccc12)C(=O)N[C@@H](CC(=O)O)C(=O)N[C@@H](CCCNC(=N)N)C(N)=O` [Dansyl-ADR-amide] (Dansyl-Ala-Asp-Arg-NH2): the “Relative Binding Index (RBI)” value is on record as −6 a.u.

Regarding `C[C@H](NS(=O)(=O)c1cccc2c(N(C)C)cccc12)C(=O)N[C@@H](CCC(=O)O)C(=O)N[C@@H](CCCNC(=N)N)C(N)=O` [Dansyl-AER-amide] (Dansyl-Ala-Glu-Arg-NH2), the “Relative Binding Index (RBI)” value was 12 a.u.

On to `C[C@H](NS(=O)(=O)c1cccc2c(N(C)C)cccc12)C(=O)N[C@@H](Cc1ccccc1)C(=O)N[C@@H](CCCNC(=N)N)C(N)=O` [Dansyl-AFR-amide] (Dansyl-Ala-Phe-Arg-NH2), for which the “Relative Binding Index (RBI)” value stood at 11 a.u.

For `C[C@H](NS(=O)(=O)c1cccc2c(N(C)C)cccc12)C(=O)NCC(=O)N[C@@H](CCCNC(=N)N)C(N)=O` [Dansyl-AGR-amide] (Dansyl-Ala-Gly-Arg-NH2), the “Relative Binding Index (RBI)” value is on record as 18 a.u.

With `C[C@H](NS(=O)(=O)c1cccc2c(N(C)C)cccc12)C(=O)N[C@@H](Cc1c[nH]cn1)C(=O)N[C@@H](CCCNC(=N)N)C(N)=O` [Dansyl-AHR-amide] (Dansyl-Ala-His-Arg-NH2), the “Relative Binding Index (RBI)” value worked out at 6 a.u.

Turning to `CC[C@H](C)[C@H](NC(=O)[C@H](C)NS(=O)(=O)c1cccc2c(N(C)C)cccc12)C(=O)N[C@@H](CCCNC(=N)N)C(N)=O` [Dansyl-AIR-amide] (Dansyl-Ala-Ile-Arg-NH2), the “Relative Binding Index (RBI)” value was determined as 19 a.u.

Consider `C[C@H](NS(=O)(=O)c1cccc2c(N(C)C)cccc12)C(=O)N[C@@H](CCCCN)C(=O)N[C@@H](CCCNC(=N)N)C(N)=O` [Dansyl-AKR-amide] (Dansyl-Ala-Lys-Arg-NH2), for which the “Relative Binding Index (RBI)” value turned out to be 10 a.u.

As to `CC(C)CC(NC(=O)[C@H](C)NS(=O)(=O)c1cccc2c(N(C)C)cccc12)C(=O)N[C@@H](CCCNC(=N)N)C(N)=O` (stereo partly shown) [Dansyl-ALR-amide] (Dansyl-Ala-[ξL]-Arg-NH2), the “Relative Binding Index (RBI)” value worked out at 4 a.u.

For `CSCC[C@H](NC(=O)[C@H](C)NS(=O)(=O)c1cccc2c(N(C)C)cccc12)C(=O)N[C@@H](CCCNC(=N)N)C(N)=O` [Dansyl-AMR-amide] (Dansyl-Ala-Met-Arg-NH2), the “Relative Binding Index (RBI)” value worked out at 12 a.u.

In the case of `C[C@H](NS(=O)(=O)c1cccc2c(N(C)C)cccc12)C(=O)N[C@@H](CC(N)=O)C(=O)N[C@@H](CCCNC(=N)N)C(N)=O` [Dansyl-ANR-amide] (Dansyl-Ala-Asn-Arg-NH2), the “Relative Binding Index (RBI)” value was 13 a.u.

Consider `C[C@H](NS(=O)(=O)c1cccc2c(N(C)C)cccc12)C(=O)N1CCC[C@H]1C(=O)N[C@@H](CCCNC(=N)N)C(N)=O` [Dansyl-APR-amide] (Dansyl-Ala-Pro-Arg-NH2), for which the “Relative Binding Index (RBI)” value is 15 a.u.

Regarding `C[C@H](NS(=O)(=O)c1cccc2c(N(C)C)cccc12)C(=O)N[C@@H](CCC(N)=O)C(=O)N[C@@H](CCCNC(=N)N)C(N)=O` [Dansyl-AQR-amide] (Dansyl-Ala-Gln-Arg-NH2), the “Relative Binding Index (RBI)” value came to 26 a.u.

For `C[C@H](NS(=O)(=O)c1cccc2c(N(C)C)cccc12)C(=O)N[C@@H](CCCNC(=N)N)C(=O)N[C@@H](CCCNC(=N)N)C(N)=O` [Dansyl-ARR-amide] (Dansyl-Ala-Arg-Arg-NH2), the “Relative Binding Index (RBI)” value was found to be 11 a.u.

For `C[C@H](NS(=O)(=O)c1cccc2c(N(C)C)cccc12)C(=O)N[C@@H](CO)C(=O)N[C@@H](CCCNC(=N)N)C(N)=O` [Dansyl-ASR-amide] (Dansyl-Ala-Ser-Arg-NH2), the “Relative Binding Index (RBI)” value was 33 a.u.

As to `C[C@H](NS(=O)(=O)c1cccc2c(N(C)C)cccc12)C(=O)N[C@H](C(=O)N[C@@H](CCCNC(=N)N)C(N)=O)[C@@H](C)O` [Dansyl-ATR-amide] (Dansyl-Ala-Thr-Arg-NH2), the “Relative Binding Index (RBI)” value was 18 a.u.

`CC(C)[C@H](NC(=O)[C@H](C)NS(=O)(=O)c1cccc2c(N(C)C)cccc12)C(=O)N[C@@H](CCCNC(=N)N)C(N)=O` [Dansyl-AVR-amide] (Dansyl-Ala-Val-Arg-NH2): the “Relative Binding Index (RBI)” value amounted to 7 a.u.

As to `C[C@H](NS(=O)(=O)c1cccc2c(N(C)C)cccc12)C(=O)N[C@@H](Cc1c[nH]c2ccccc12)C(=O)N[C@@H](CCCNC(=N)N)C(N)=O` [Dansyl-AWR-amide] (Dansyl-Ala-Trp-Arg-NH2), the “Relative Binding Index (RBI)” value is on record as 21 a.u.

With `C[C@H](NS(=O)(=O)c1cccc2c(N(C)C)cccc12)C(=O)N[C@@H](Cc1ccc(O)cc1)C(=O)N[C@@H](CCCNC(=N)N)C(N)=O` [Dansyl-AYR-amide] (Dansyl-Ala-Tyr-Arg-NH2), the “Relative Binding Index (RBI)” value is recorded as 11 a.u.

Turning to `C[C@H](NC(=O)[C@H](CC(=O)O)NS(=O)(=O)c1cccc2c(N(C)C)cccc12)C(=O)N[C@@H](CCCNC(=N)N)C(N)=O` [Dansyl-DAR-amide] (Dansyl-Asp-Ala-Arg-NH2), the “Relative Binding Index (RBI)” value was −55 a.u.

With `CN(C)c1cccc2c(S(=O)(=O)N[C@@H](CC(=O)O)C(=O)N[C@@H](CC(=O)O)C(=O)N[C@@H](CCCNC(=N)N)C(N)=O)cccc12` [Dansyl-DDR-amide] (Dansyl-Asp-Asp-Arg-NH2), the “Relative Binding Index (RBI)” value was −24 a.u.

In the case of `CN(C)c1cccc2c(S(=O)(=O)N[C@@H](CC(=O)O)C(=O)N[C@@H](CCC(=O)O)C(=O)N[C@@H](CCCNC(=N)N)C(N)=O)cccc12` [Dansyl-DER-amide] (Dansyl-Asp-Glu-Arg-NH2), the “Relative Binding Index (RBI)” value is given as −5 a.u.

As for `CN(C)c1cccc2c(S(=O)(=O)N[C@@H](CC(=O)O)C(=O)N[C@@H](Cc3ccccc3)C(=O)N[C@@H](CCCNC(=N)N)C(N)=O)cccc12` [Dansyl-DFR-amide] (Dansyl-Asp-Phe-Arg-NH2), the “Relative Binding Index (RBI)” value was −7 a.u.

Turning to `CN(C)c1cccc2c(S(=O)(=O)N[C@@H](CC(=O)O)C(=O)NCC(=O)N[C@@H](CCCNC(=N)N)C(N)=O)cccc12` [Dansyl-DGR-amide] (Dansyl-Asp-Gly-Arg-NH2), the “Relative Binding Index (RBI)” value is given as 0 a.u.

As to `CN(C)c1cccc2c(S(=O)(=O)N[C@@H](CC(=O)O)C(=O)N[C@@H](Cc3c[nH]cn3)C(=O)N[C@@H](CCCNC(=N)N)C(N)=O)cccc12` [Dansyl-DHR-amide] (Dansyl-Asp-His-Arg-NH2), the “Relative Binding Index (RBI)” value is −11 a.u.

As for `CC[C@H](C)[C@H](NC(=O)[C@H](CC(=O)O)NS(=O)(=O)c1cccc2c(N(C)C)cccc12)C(=O)N[C@@H](CCCNC(=N)N)C(N)=O` [Dansyl-DIR-amide] (Dansyl-Asp-Ile-Arg-NH2), the “Relative Binding Index (RBI)” value amounted to 1 a.u.

Regarding `CN(C)c1cccc2c(S(=O)(=O)N[C@@H](CC(=O)O)C(=O)N[C@@H](CCCCN)C(=O)N[C@@H](CCCNC(=N)N)C(N)=O)cccc12` [Dansyl-DKR-amide] (Dansyl-Asp-Lys-Arg-NH2), the “Relative Binding Index (RBI)” value is reported as −8 a.u.

Take `CC(C)C[C@H](NC(=O)[C@H](CC(=O)O)NS(=O)(=O)c1cccc2c(N(C)C)cccc12)C(=O)N[C@@H](CCCNC(=N)N)C(N)=O` [Dansyl-DLR-amide] (Dansyl-Asp-Leu-Arg-NH2): the “Relative Binding Index (RBI)” value is −14 a.u.

Take `CSCC[C@H](NC(=O)[C@H](CC(=O)O)NS(=O)(=O)c1cccc2c(N(C)C)cccc12)C(=O)N[C@@H](CCCNC(=N)N)C(N)=O` [Dansyl-DMR-amide] (Dansyl-Asp-Met-Arg-NH2): the “Relative Binding Index (RBI)” value is −6 a.u.

With `CN(C)c1cccc2c(S(=O)(=O)N[C@@H](CC(=O)O)C(=O)N[C@@H](CC(N)=O)C(=O)N[C@@H](CCCNC(=N)N)C(N)=O)cccc12` [Dansyl-DNR-amide] (Dansyl-Asp-Asn-Arg-NH2), the “Relative Binding Index (RBI)” value was −4 a.u.

On to `CN(C)c1cccc2c(S(=O)(=O)N[C@@H](CC(=O)O)C(=O)N3CCC[C@H]3C(=O)N[C@@H](CCCNC(=N)N)C(N)=O)cccc12` [Dansyl-DPR-amide] (Dansyl-Asp-Pro-Arg-NH2), for which the “Relative Binding Index (RBI)” value is −2 a.u.

Regarding `CN(C)c1cccc2c(S(=O)(=O)N[C@@H](CC(=O)O)C(=O)N[C@@H](CCC(N)=O)C(=O)N[C@@H](CCCNC(=N)N)C(N)=O)cccc12` [Dansyl-DQR-amide] (Dansyl-Asp-Gln-Arg-NH2), the “Relative Binding Index (RBI)” value was determined as 8 a.u.

For the compound `CN(C)c1cccc2c(S(=O)(=O)N[C@@H](CC(=O)O)C(=O)N[C@@H](CCCNC(=N)N)C(=O)N[C@@H](CCCNC(=N)N)C(N)=O)cccc12` [Dansyl-DRR-amide] (Dansyl-Asp-Arg-Arg-NH2), the “Relative Binding Index (RBI)” value is recorded as −7 a.u.

As for `CN(C)c1cccc2c(S(=O)(=O)N[C@@H](CC(=O)O)C(=O)N[C@@H](CO)C(=O)N[C@@H](CCCNC(=N)N)C(N)=O)cccc12` [Dansyl-DSR-amide] (Dansyl-Asp-Ser-Arg-NH2), the “Relative Binding Index (RBI)” value was 15 a.u.
